Test [1] relates to HSP17.6C-C1 of Arabidopsis thaliana. Put plainly: HSP expression test (HSP17.6C-C1 upstream region linked to GUS, 4-MU production). It is filed as in vivo. Also on record: key: 4-MU per plant divided by 4-MU of 50 μM geldanamycin positive control. Particulars: soaked 6 hours at 22° C., positive control 50 μM geldanamycin. Here is the method: First, a construct linked to β-glucuronidase (GUS) gene was introduced to 1 kb upstream of HSP17.6C-C1 of Arabidopsis thaliana (the family Brassicaceae) to prepare a mutant. Each naphthoquinone compound (shown in Table 1) dissolved in DMSO was diluted to 1 μM, 10 μM, 100 μM, or 1000 μM (final concentration) with deionized water to prepare a test solution of each example (final concentration of DMSO: 1.0% by volume). A 50 μM geldanamycin solution was similarly prepared as a positive control.
Next, two individuals of 7-day-old Arabidopsis thaliana mutants grown in a ⅕ MS medium were soaked in 300 μL of the test solution of each example or the positive control at 22° C. for 6 hours. The Arabidopsis thaliana was washed with deionized water, then soaked in 200 μL of a 4-methylumbelliferyl-β-D-glucuronide hydrate solution containing a surfactant, and incubated at 22° C. for 16 hours in the dark. The fluorescence intensity of the supernatant was measured, and the amount of 4-methylumbelliferone (4-MU) production per plant was calculated. The calculated value of 4-MU was divided by the value of 4-MU of the positive control to calculate a ratio vs. positive control. A higher numerical value means that HSP was expressed at a larger level.
Each shikonin compound or alkannin compound (shown in Table 2) dissolved in DMSO was diluted to 1 μM, 10 μM, 100 μM, or 1000 μM (final concentration) with deionized water to prepare a test solution of each example (final concentration of DMSO: 1.0% by volume). A 50 μM geldanamycin solution was similarly prepared as a positive control. The other test procedures were performed in the same way as in Test Example 1. The calculated value of 4-MU was divided by the value of 4-MU of the positive control to calculate a ratio vs. positive control. […]

The subject of another test is Arabidopsis thaliana. Kind of test: Heat tolerance induction test based on chlorophyll concentration. It is filed as in vivo. Particulars: 50 μM in medium; heat-treated at 44° C. for 1 hour; 3 days culture after. On the procedure: A ⅕ MS medium was prepared in a 6-well plate, and filter paper was placed thereon. 12 individuals of wild-type Arabidopsis thaliana were seeded per well and grown at 22° C. for 7 days in a plant incubator under 16-hour light and 8-hour dark conditions. Next, the naphthoquinone compound of each example (shown in Table 3) dissolved in DMSO was added to a ⅕ MS medium, and each medium (final concentration: 50 μM) was prepared in a 6-well plate (final concentration of DMSO: 1.0% by volume). A medium containing 1.0% by volume of DMSO was used as a control.
The Arabidopsis thaliana grown for 7 days in the 6-well plate was transplanted, together with the filter paper, to the medium containing the compound and cultured for 1 day in a plant incubator. The plate was placed in a plastic bag and heat-treated at 44° C. for 1 hour in a water bath. After the heat treatment, culture was performed for 3 days in a plant incubator. The leaves of 4 Arabidopsis thaliana individuals were cut out, and chlorophyll was extracted with 300 μL of ethanol. The absorbance of each extract was measured at 649 nm and 665 nm, and the chlorophyll concentration (mg/L) was calculated. A higher chlorophyll concentration means that heat tolerance is better.
The shikonin compound of each example (shown in Table 4) dissolved in DMSO was added to a ⅕ MS medium, and each medium (final concentration: 50 μM) was prepared in a 6-well plate (final concentration of DMSO: 1.0% by volume). A medium containing 1% by volume of DMSO was used as a control. The other test procedures were performed in the same way as in Test Example 3.
The Lithospermi radix extract used was Shikonix Liquid (BG) (trade name, manufactured by Ichimaru Pharcos Co., Ltd.) containing a Lithospermum erythrorhizon root extract. The Shikonix Liquid contained, as major components, shikonin compounds such as acetylshikonin, β-hydroxyisovalerylshikonin, and isobutyrylshikonin. The Shikonix Liquid also contained, as additional minor components, α-methyl-n-butylshikonin, β,β-dimethylacrylshikonin, isovalerylshikonin, and shikonin.
The Shikonix Liquid (BG) was added at a dilution ratio of 150-fold to a ⅕ MS medium. The same amount of water was added as a control. ThermoZyme (manufactured by Fujimikogyo Co., Ltd.) was added at a dilution ratio of 150-fold as a positive control (Reference Example). The other test procedures were performed in the same way as in Test Example 3.

`O=C1C=CC(=O)c2ccccc21` [Example 1, 1,4-Naphthoquinone]: the “Ratio of 4-MU amount vs. positive control” value is recorded as 0.13 in test [1] (1 μM), 0.76 in test [1] (10 μM), 0.27 in test [1] (100 μM) and 0.03 in test [1] (1000 μM).
`O=C1C=C(O)C(=O)c2ccccc21` [Example 2, 2-Hydroxy-1,4-naphthoquinone]: the “Ratio of 4-MU amount vs. positive control” value was 0.14 in test [1] (1 μM), 0.15 in test [1] (10 μM), 0.47 in test [1] (100 μM) and 0.04 in test [1] (1000 μM).
In the same order, the values of `O=C1C=CC(=O)c2c(O)cccc21` [Example 3, 5-Hydroxy-1,4-naphthoquinone] are 0.17, 0.14, 0.59 and 0.46.
In the same order, the values of `CC1=CC(=O)c2c(O)cccc2C1=O` [Example 4, 5-Hydroxy-2-methyl-1,4-naphthoquinone] are 0.13, 1.0, 0.18 and 0.06.
In the same order, the values of `O=C1C(Cl)=C(Cl)C(=O)c2c1cccc2[N+](=O)[O-]` [Example 8, 2,3-Dichloro-5-nitro-1,4-naphthoquinone] are 0.15, 1.00, 0.38 and 0.46.
`O=C1C(Cl)=C(Cl)C(=O)c2cc([N+](=O)[O-])ccc21` [Example 9, 2,3-Dichloro-6-nitro-1,4-naphthoquinone]: the “Ratio of 4-MU amount vs. positive control” value was found to be 0.17 in test [1] (1 μM), 0.91 in test [1] (10 μM), 0.66 in test [1] (100 μM) and 0.48 in test [1] (1000 μM).
Consider `CC1=CC(=O)c2ccccc2C1=O` [Example 10, 2-Methyl-1,4-naphthoquinone], for which the “Ratio of 4-MU amount vs. positive control” value in test [1] (1 μM) was determined as 0.04; in test [1] (10 μM), 0.05; in test [1] (100 μM), 0.09; in test [1] (1000 μM), 0.08.
The like results for `COC1=CC(=O)c2ccccc2C1=O` [Example 11, 2-Methoxy-1,4-naphthoquinone] were, in that order, 0.06, 0.04, 0.21 and 0.11.
Turning to `NC1=C(Cl)C(=O)c2ccccc2C1=O` [Example 12, 2-Amino-3-chloro-1,4-naphthoquinone], the “Ratio of 4-MU amount vs. positive control” value in test [1] (1 μM) is 0.06; in test [1] (10 μM), 0.15; in test [1] (100 μM), 0.19; in test [1] (1000 μM), 0.14.
Consider `CC(C)=CC[C@@H](O)C1=CC(=O)c2c(O)ccc(O)c2C1=O` [Example 13, Shikonin], for which the “Ratio of 4-MU amount vs. positive control” value is given as 0.04 in test [1] (1 μM), 0.92 in test [1] (10 μM), 1.52 in test [1] (100 μM) and 0.85 in test [1] (1000 μM). In the test with Arabidopsis thaliana, the Chlorophyll concentration was 6.28 mg/L.
For `CC(=O)O[C@H](CC=C(C)C)C1=CC(=O)c2c(O)ccc(O)c2C1=O` [Example 14, Acetylshikonin], the “Ratio of 4-MU amount vs. positive control” value turned out to be 0.05 in test [1] (1 μM), 1.03 in test [1] (10 μM), 1.00 in test [1] (100 μM) and 0.81 in test [1] (1000 μM). The compound further showed a Chlorophyll concentration in the test on Arabidopsis thaliana of 5.73 mg/L.
The like results for `CC(C)=CC[C@@H](OC(=O)C(C)C)C1=CC(=O)c2c(O)ccc(O)c2C1=O` [Example 15, Isobutyrylshikonin] were, in that order, 0.03, 1.79, 1.19, 1.23 and 6.29 mg/L.
For the compound `CC(C)=CCC(OC(=O)CC(C)C)C1=CC(=O)c2c(O)ccc(O)c2C1=O` (stereo not drawn) [Example 16, Isovalerylshikonin], the “Ratio of 4-MU amount vs. positive control” value in test [1] (1 μM) is 0.04; in test [1] (10 μM) it was 0.93; in test [1] (100 μM), 0.85; in test [1] (1000 μM), 0.76.
As for `CC(C)=CC[C@@H](OC(=O)CC(C)(C)O)C1=CC(=O)c2c(O)ccc(O)c2C1=O` [Example 17, β-Hydroxyisovalerylshikonin], the “Ratio of 4-MU amount vs. positive control” value in test [1] (1 μM) was 0.10; in test [1] (10 μM), 0.71; in test [1] (100 μM), 0.80; in test [1] (1000 μM), 0.25. The compound also came in with a Chlorophyll concentration in the test on Arabidopsis thaliana of 5.57 mg/L.
As for `CCC(C)C(=O)O[C@H](CC=C(C)C)C1=CC(=O)c2c(O)ccc(O)c2C1=O` (stereo partly drawn) [Example 18, α-Methyl-n-butylshikonin], the “Ratio of 4-MU amount vs. positive control” value in test [1] (1 μM) amounted to 0.02; in test [1] (10 μM) it was 1.00; in test [1] (100 μM), 1.40; in test [1] (1000 μM), 2.76.
For `CC(C)=CCC(OC(=O)C=C(C)C)C1=CC(=O)c2c(O)ccc(O)c2C1=O` (stereo not drawn) [Example 19, β,β-Dimethylacrylshikonin], the “Ratio of 4-MU amount vs. positive control” value is 0.02 in test [1] (1 μM), 0.95 in test [1] (10 μM), 1.35 in test [1] (100 μM) and 2.28 in test [1] (1000 μM).
The like results for `CC(C)=CC[C@H](O)C1=CC(=O)c2c(O)ccc(O)c2C1=O` [Example 20, Alkannin] were, in that order, 0.04, 0.11, 0.62 and 1.13.
